The values below come from US5594012A, “Amino acid derivatives and anti-active oxygen agents” (Ajinomoto Co., Inc., priority 1992, dated 1997).

The subject of data set [1] is lipid peroxidation in murine brain homogenate. In words: Inhibitory effects on lipid peroxidation (murine brain homogenate). In kind it is biochemical, murine (C57 black mouse). As to conditions: 30 μM test compound; no added iron; 37° C., 60 minutes; pH 7.2 to 7.8. As to the method:
(§1) The test was carried out according to the method described in Method in Enzymol., Vol. 52, page 302, 1978. A C57 black mouse was killed by cervical dislocation, and the whole brain extracted from the dissected head was washed with 20 mM phosphate buffer (hereinafter referred to as "PBS-2"). Then, the brain was added with PBS-2 in an amount of 19 times its wet weight, and the mixture was disrupted and homogenized with a homogenizer "Polytron" (manufactured by Kinematica). The thus prepared 5% solution of the murine brain homogenate in PBS-2 was diluted 1:5 with fresh PBS-2. To 800 μl of the resulting 1% solution of the murine brain homogenate in PBS-2 (protein content: 0.8 to 1.0 mg/ml) were successively added 100 μl of a PBS-2 solution of each of the test compounds shown in Table 7 below and 100 μl of an aqueous solution of ammonium iron (II) sulphate. The final concentration of the test compounds and ammonium iron (II) sulphate were adjusted to be 1 mM and 100 μM, respectively. If test compounds were not soluble in PBS-2 alone, an aqueous sodium hydroxide solution or DMSO was added. The pH of the solution was adjusted to 7.2 to 7.8.
Test for Inhibitory Effects on Lipid Peroxidation
To 900 μl of a 5% solution of the murine brain homogenate in PBS-2 prepared in the same way as described in Test Example 3 was added 100 μl of a PBS-2 solution of each of the test compounds shown in Table 8 below. The final concentration of the test compounds was adjusted to be 30 μM. If test compounds were not soluble in PBS-2 alone, an aqueous solution of sodium hydroxide or DMSO was added. The pH of the solution was adjusted to 7.2 to 7.8.
The solution after heated at 37° C. for 60 minutes was added with 1.0 ml of an aqeuous solution of thiobarbituric acid/trichloroacetic acid/hydrochloric acid, and the mixture was heated in a boiling water bath for 15 minutes. After ice-cooling, the solution was extracted with 2.0 ml of 1-butanol to prepare a sample for determining the lipid peroxide in the same way as described in Test Example 1. […] [formula] A4 : Absorbance when a test compound was added. A5 : Absorbance when a test compound was not added.
A6 : Abosrbance when a test compound was not added and heating at 37° C. for […] was not carried out.

Data set [2] relates to hydroxyl radical. Description: Inhibitory effects on hydroxyl radical formation (2) (iron (II)/hydrogen peroxide, DMPO, ESR). It counts as biochemical. As to conditions: 306 μM test compound; 306 μM iron (II) sulphate; 75 mM DMPO; 306 μM hydrogen peroxide; ESR within 40 seconds. As to the method: Test for Inhibitory Effects on Hydroxyl Radical Formation (2)
To 75 μl of a solution of each of the test compounds shown in Table 9 below in 0.1M phosphate buffer (hereinafter referred to as "PBS-3") were successively added 75 μl of an aqueous solution of iron (II) sulphate, 20 μl of an aqueous solution of 5,5-dimethyl-1-pyrroline-N-oxide "DMPO" (manufactured by Dojin Chemical) and 75 μl of an aqueous solution of hydrogen peroxide. […] If test compounds were not soluble in PBS-3 alone, an aqueous sodium hydroxide solution or N,N-dimethyl formamide was added.
This solution was subjected to determination for the hydroxy radical immediately (within 40 seconds), using an electron spin resonance (ESR) meter "JES-FR80S" (manufactured by Nippon Denshi).
[formula] E1 : Signal magnitude when a test compound was added. E2 : Signal magnitude when a test compound was not added.

The test system of data set [3] is lipid peroxidation in murine brain homogenate. Description: Inhibitory effects on metal ion-induced lipid peroxidation (murine brain homogenate). As to conditions: 1 mM test compound; 100 μM ammonium iron (II) sulphate; 37° C., 30 minutes; pH 7.2 to 7.8. In kind it is biochemical, murine (C57 black mouse). As to the method:
Test for Inhibitory Effects on Metal Ion-induced Lipid Peroxidation
as §1
The solution after heated at 37° C. for 30 minutes was added with 2.0 ml of an aqueous solution of thiobarbituric acid/trichloroacetic acid/hydrochloric acid, and the mixture was heated in a boiling water bath for 15 minutes. After ice-cooling, the solution was extracted with 1.0 ml of 1-butanol to prepare a sample for determining the peroxide lipid in the same way as described in Test Example 1.
(§2) [formula] A1 : Absorbance when a test compound was added. A2 : Absorbance when a test compound was not added.
A3 : Absorbance when a test compound was not added and heating at 37° C. for 30 minutes was not carried out.

Data set [4] relates to hydroxyl radical. Description: Inhibitory effects on hydroxyl radical formation (1) (xanthine/xanthine oxidase, deoxyribose). As to conditions: 360 μM test compound; 36 μM ammonium iron (III) sulphate; xanthine oxidase 0.7 unit/ml; 37° C., 15 minutes; pH 7.4 to 7.8. It counts as biochemical. As to the method: Test for Inhibitory Effects on Hydroxyl Radical Formation (1)
The test was carried out in accordance with the method described in FEBS Letters, Vol. 128, page 347, 1981. Namely, to 1.1 ml of a solution of 54 mM sodium chloride in 9 mM phosphate buffer (hereinafter referred to as "PBS-I") were successively added 140 μl of a solution of each of the test compounds shown in Table 6 below in PBS-1, […] of a 1 mM solution of ammonium iron (III) sulphate in hydrochloric acid, 140 μl of a solution of xanthine (manufactured by Tokyo Kasei Co.) in PBS-1, 14 μl a solution of deoxyribose (Sigma) in PBS-1 and xanthine oxidase (Sigma). The final concentrations of the test compounds, ammonium iron (III) sulphate, xanthine, deoxyribose and xanthine oxidase were adjusted to be 360 μM, 36 μM, 70 μM, 700 μM and 0.7 unit/ml, respectively. If test compounds were not soluble in PBS-1 alone, aqueous sodium hydroxide solution or DMSO was added. The pH of the solution was adjusted to 7.4 to 7.8.
. The percent inhibition of the hydroxyl radical was calculated from the following equation (2) and the results are shown in Table 6. [formula] F1 : Intensity of fluorescence when a test compound was added. F2 : Intensity of fluorescence when a test compound was added but deoxyribose was not added.
F3 : Intensity of fluorescence when a test compound was not added.
F4 : Intensity of fluorescence when neither test compound nor deoxyribose was added.

For data set [5], the system named is lipid peroxidation in homogenate of murine swiss 3T3 cells. Description: Inhibitory effects on UV-induced lipid peroxidation (homogenate of murine swiss 3T3 cells). It counts as biochemical. As to conditions: 1 mM test compound; UVB 0.4 mW/cm^2, 90 min; pH 7.2 to 7.8; TBA, 535 nm. As to the method:
Test for Inhibitory Effects on UV-induced Lipid Peroxidation
The test was carried out on the basis of the methods described in Biochim. Biophys. […] Namely, 12 μl of an aqueous sodium hydroxide solution of each of the test compounds shown in Table 5 below was added to 1.2 ml of a homogenate of murine swiss 3T3 cells (i.e. a kind of murine skin cells) prepared by a conventional method in 20 mM phosphate buffer (protein content: 1.5 to 1.8 mg/ml). The final concentration of the test compounds was adjusted to be 1 mM and the pH of the solution was adjusted to 7.2 to 7.8. If test compounds were not soluble in an aqueous sodium hydroxide solution, they were dissolved in N,N-dimethyl sulfoxide (DMSO).
This solution (1.1 ml) was irradiated with UV rays (0.4 mW/cm^2, 90 min.) using a UVB lamp "EB-280C/J" (manufactured by Spectronics). To an aliquot (1.0 ml) of this solution were successively added 0.2 ml of an aqueous solution of sodium dodecyl sulfate and 1.0 ml of an aqueous solution of thiobarbituric acid/trichloroacetic acid/hydrochloric acid, and the mixed solution was heated in a boiling water bath for 15 minutes. After ice-cooling, the solution was extracted with 1.0 ml of 1-butanol to prepare a sample for determining peroxide lipid as absorbance at a wavelength of 535 nm using a spectrophotometer "Model 320" (manufactured by Hitachi).
as §2
A3 : Absorbance when a test compound was not added and UV rays were not irradiated.

Another data set in a line: UV absorptive activities. In kind it is physicochemical. As to conditions: 100 μM in ethanol (water or DMSO added if not soluble); for Maximum molar extinction coefficient: UVA and UVB regions. As for the experimental part: Test for UV Absorptive Activities
A solution of each of the test compounds shown in Table 10 below in ethanol was prepared for the final concentration to be 100 μM. If test compounds were not soluble in ethanol alone, water or DMSO was added.
The absorption spectrum of each sample was determined using a spectrophotometer "Model 320" (manufactured by Hitachi).

Regarding `Cc1ncc(CO)c(CNCC(=O)O)c1O` [Synthesis Example 16], the “% Inhibition of lipid peroxidation” value in data set [1] came to 89%. In addition, in the data set on hydroxyl radical [2], the “% Inhibition of hydroxy radicals” value is reported as 56%.
Regarding `O=C(O)CC(O)(CC(=O)O)C(=O)O` [Citric acid, reference compound], the “% Inhibition of metal ion-induced lipid peroxidation” value in data set [3] is on record as -15%. For the same molecule, in the data set on hydroxyl radical [4], the “% Inhibition of hydroxyl radical” value is -33%. The “% Inhibition of UV-induced lipid peroxidation” value in data set [5] was determined as 19%. The “% Inhibition of lipid peroxidation” value in data set [1] was -13%.
Take `O=C(O)C(Cc1ccc(O)cc1)N=Cc1c(O)ccc2ccccc12` (stereo not drawn) [Synthesis Example 31]: the “% Inhibition of metal ion-induced lipid peroxidation” value in data set [3] amounted to 90%. Moreover, the “% Inhibition of hydroxyl radical” value in the data set with hydroxyl radical [4] was 16%.
For `O=C1O[C@H]([C@@H](O)CO)C(O)=C1O` [Vitamin C, reference compound], the “% Inhibition of metal ion-induced lipid peroxidation” value in data set [3] is recorded as -23%. In data set [1], the “% Inhibition of lipid peroxidation” value is on record as -22%.
With `O=C(O)[C@H](Cc1c[nH]cn1)N=Cc1c(O)ccc2ccccc12` [Synthesis Example 27, N-(2-hydroxy-1-naphthal)-L-histidine], in data set [3], the “% Inhibition of metal ion-induced lipid peroxidation” value is 87%. Further, in the data set “UV absorptive activities”, the “Wavelength (nm) of maximum absorption” value is 309 nm and the “Maximum molar extinction coefficient” value is on record as 7,000. Besides, in data set [1], the “% Inhibition of lipid peroxidation” value was 98%. In the data set on hydroxyl radical [2], the “% Inhibition of hydroxy radicals” value is reported as 71%.
With `N=C(N)NCCCC(N=Cc1c(O)ccc2ccccc12)C(=O)O` (stereo not drawn) [Synthesis Example 53], the “% Inhibition of metal ion-induced lipid peroxidation” value in data set [3] is recorded as 96%. Moreover, the “% Inhibition of hydroxy radicals” value with hydroxyl radical [2] came out at 68%.
On to `Cc1ncc(CO)c(CNC(Cc2c[nH]cn2)C(=O)O)c1O` (stereo not drawn) [Synthesis Example 22], for which, in “UV absorptive activities”, the “Wavelength (nm) of maximum absorption” value came to 290 nm and the “Maximum molar extinction coefficient” value is listed as 5,300. Also, the “% Inhibition of lipid peroxidation” value in data set [1] is on record as 91%. Besides, the “% Inhibition of hydroxy radicals” value with hydroxyl radical [2] was 51%.
Regarding `O=C(O)C(CCO)NCc1ccccc1O` (stereo not drawn) [Synthesis Example 3], the “% Inhibition of metal ion-induced lipid peroxidation” value in data set [3] turned out to be 21%. For the same molecule, the “% Inhibition of hydroxyl radical” value in the data set on hydroxyl radical [4] is 15%. Moreover, in data set [5], the “% Inhibition of UV-induced lipid peroxidation” value is 65%. Moreover, the “% Inhibition of hydroxy radicals” value with hydroxyl radical [2] came out at 45%.
As for `Cc1ncc(CO)c(C=NC(CO)C(=O)O)c1O` (stereo not drawn) [Synthesis Example 69], the “% Inhibition of metal ion-induced lipid peroxidation” value in data set [3] amounted to 23%. In “UV absorptive activities”, the “Wavelength (nm) of maximum absorption” value was determined as 336 nm and the “Maximum molar extinction coefficient” value is 3,000. Moreover, the “% Inhibition of lipid peroxidation” value in data set [1] was 15%. The “% Inhibition of hydroxy radicals” value in the data set on hydroxyl radical [2] is recorded as 19%.
As to `O=C(O)CCC(N=Cc1c(O)ccc2ccccc12)C(=O)O` (stereo not drawn) [Synthesis Example 47], the “% Inhibition of metal ion-induced lipid peroxidation” value in data set [3] is 90%. Moreover, the “% Inhibition of hydroxy radicals” value with hydroxyl radical [2] is recorded as 32%.
With `Cc1ncc(CO)c(CNC(Cc2ccccc2)C(=O)O)c1O` (stereo not drawn) [Synthesis Example 25], in data set [1], the “% Inhibition of lipid peroxidation” value is 55%.
As to `O=C(O)C(Cc1ccc(O)cc1)NCc1ccccc1O` (stereo not drawn) [Synthesis Example 4], the “% Inhibition of metal ion-induced lipid peroxidation” value in data set [3] worked out at 26%. The “% Inhibition of hydroxyl radical” value in the data set on hydroxyl radical [4] was 33%. Also, the “% Inhibition of UV-induced lipid peroxidation” value in data set [5] was found to be 60%. Also, in the data set with hydroxyl radical [2], the “% Inhibition of hydroxy radicals” value amounted to 27%.
In the case of Vitamin E [reference compound], in data set [3], the “% Inhibition of metal ion-induced lipid peroxidation” value was found to be 29%. Further, the “% Inhibition of lipid peroxidation” value in data set [1] is listed as 30%.
As to `O=C(O)C(CCO)N=Cc1c(O)ccc2ccccc12` (stereo not drawn) [Synthesis Example 29], the “% Inhibition of metal ion-induced lipid peroxidation” value in data set [3] was found to be 78%. In the data set on hydroxyl radical [2], the “% Inhibition of hydroxy radicals” value is 60%.
For the molecule `Cc1ncc(CO)c(C=NC(Cc2ccc(O)cc2)C(=O)O)c1O` (stereo not drawn) [Synthesis Example 70], in data set [3], the “% Inhibition of metal ion-induced lipid peroxidation” value was 27%. In the data set on hydroxyl radical [4], the “% Inhibition of hydroxyl radical” value came to 60%. The “% Inhibition of hydroxy radicals” value in the data set with hydroxyl radical [2] was determined as 28%.
Regarding `CC(C)C(N=Cc1c(O)ccc2ccccc12)C(=O)O` (stereo not drawn) [Synthesis Example 30], in data set [3], the “% Inhibition of metal ion-induced lipid peroxidation” value was found to be 43%. In addition, the “% Inhibition of hydroxy radicals” value in the data set with hydroxyl radical [2] is listed as 25%.
For `O=C(O)C(Cc1c[nH]cn1)N=Cc1ccccc1O` (stereo not drawn) [Synthesis Example 60] the same measures were 34% and 33%.
`COC(=O)CCC(N=Cc1c(O)ccc2ccccc12)C(=O)O` (stereo not drawn) [Synthesis Example 48]: the “% Inhibition of metal ion-induced lipid peroxidation” value in data set [3] is given as 85%. In addition, in the data set with hydroxyl radical [2], the “% Inhibition of hydroxy radicals” value came to 54%.
`Cc1ncc(CO)c(CNC(C)C(=O)O)c1O` (stereo not drawn) [Synthesis Example 17]: the “% Inhibition of lipid peroxidation” value in data set [1] is given as 56%.
